Publication PMC9774391 (ACS Omega, 2022)

Key:
Beta Amyloid 1–42 (Aβ42) = target: T1, Beta Amyloid 1–42 (Aβ42) (Homo sapiens, UniProt P05067); test: Beta Amyloid 1–42 (Aβ42) inhibitor screening assay; assay type: biochemical; conditions: for inhibition at 1000 µM: 10^–3 M; for inhibition at 1000 µM / inhibition at 100 µM: read-out: % β-amyloid plaque inhibition; for inhibition at 100 µM: 10^–4 M; for IC50: read-out: IC50 on β-amyloid plaque aggregation
T1 construct: The Beta Amyloid 1–42 (Aβ42) Ligand Screening Assay kit; purchased BioVision, Milpitas, CA
Description: The Beta Amyloid 1–42 (Aβ42) Ligand Screening Assay kit (BioVision, Milpitas, CA) technique based on the fluorometric approach served as the basis for the experimental process.[21],[28],[29]

BChE [1] = target: T2, BChE (Homo sapiens, UniProt P06276); test: Enzyme kinetics on BChE (Lineweaver–Burk); assay type: biochemical
Procedure: (§1) The experimental procedures used in the kinetic investigations were identical to those used in the inhibition experiments. […]. Acetylthiocholine iodide (ATC) and butyrylthiocholine iodide (BTC) solutions were utilized as the substrates for the ChE enzymes, with serial dilutions at six different concentrations (600, 300, 150, 75, 37.5, and 18.75 μM). The tyramine substrate solution (concentrations ranging from 20 to 0.625 μM) was produced for the MAO enzymes at six different concentrations. Separate measurements were conducted both with and without an inhibitor. Using the Microsoft Office Excel 2013 program, the resulting absorbance values were compared to various substrate concentrations, and Lineweaver–Burk plots were created.[19]−[22]
(§2) The absorbance data from the experiments and the substrate concentrations were used to generate Lineweaver–Burk plots. The graphic’s x-axis stands for 1/[S] […] […]. The intersection of these four lines on the diagram was used to define the type of substrate and inhibitor reaction against the enzyme.
(§3) Reversible and irreversible inhibition of enzymes are the two categories that inhibition is commonly subdivided into. In irreversible inhibition, the inhibitor either creates a recalcitrant complex structure or establishes a covalent bond with the enzyme. […]

Cytotoxicity test (MTT) = assay type: cell-based; conditions: NIH/3T3 mouse embryonic fibroblast cells (ATCC CRL-1658), NIH/3T3 mouse fibroblast healthy cell line
Procedure: The NIH/3T3 cells were incubated according to the manufacturer’s recommendations. In 96-well plates, NIH/3T3 cells were seeded at a density of 1 × 10^4 cells per well. The MTT test was conducted in line with the previously mentioned standards.[19],[22],[23],[28],[30]

BChE [2] = target: T2, BChE; test: biochemical; conditions: for inhibition at 1000 µM: 10^–3 M; for inhibition at 100 µM: 10^–4 M; for inhibition at 10 µM: 10^–5 M; for inhibition at 1 µM: 10^–6 M; for inhibition at 0.1 µM: 10^–7 M; for inhibition at 0.01 µM: 10^–8 M; for inhibition at 0.001 µM: 10^–9 M
Procedure: (§4) According to the modified Ellman approach outlined in our team’s earlier work, the AChE and BChE inhibitory activities of the obtained compounds were evaluated.[18]−[21]

AChE = AChE (Homo sapiens, UniProt P22303); test: biochemical; conditions: for inhibition at 1000 µM: 10^–3 M; for inhibition at 100 µM: 10^–4 M; for inhibition at 10 µM: 10^–5 M; for inhibition at 1 µM: 10^–6 M; for inhibition at 0.1 µM: 10^–7 M; for inhibition at 0.01 µM: 10^–8 M; for inhibition at 0.001 µM: 10^–9 M
Procedure: as §4

MAO-A [3] = target: T3, MAO-A (Homo sapiens, UniProt P21397); test: In vitro MAO-A inhibition assay (fluorometric); assay type: biochemical; conditions: for inhibition at 1000 µM: 10^–3 M; for inhibition at 100 µM: 10^–4 M
T3 sequence (P21397 1-527): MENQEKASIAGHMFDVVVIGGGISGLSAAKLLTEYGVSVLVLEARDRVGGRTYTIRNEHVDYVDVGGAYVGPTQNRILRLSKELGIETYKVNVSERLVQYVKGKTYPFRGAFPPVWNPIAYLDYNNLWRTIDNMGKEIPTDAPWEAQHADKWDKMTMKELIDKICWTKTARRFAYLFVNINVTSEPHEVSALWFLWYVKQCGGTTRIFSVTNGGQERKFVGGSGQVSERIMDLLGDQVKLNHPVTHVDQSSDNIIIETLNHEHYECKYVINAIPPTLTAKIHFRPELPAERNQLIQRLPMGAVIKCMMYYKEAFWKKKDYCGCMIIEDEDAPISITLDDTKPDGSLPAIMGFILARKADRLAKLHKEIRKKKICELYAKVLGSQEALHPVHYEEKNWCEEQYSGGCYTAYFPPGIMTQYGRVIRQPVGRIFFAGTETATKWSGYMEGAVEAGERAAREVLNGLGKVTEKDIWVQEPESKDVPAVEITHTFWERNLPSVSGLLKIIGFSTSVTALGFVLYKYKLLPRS

MAO-B [4] = target: T4, MAO-B (Homo sapiens, UniProt P27338); test: In vitro MAO-B inhibition assay (fluorometric); assay type: biochemical; conditions: for inhibition at 1000 µM: 10^–3 M; for inhibition at 100 µM: 10^–4 M; for inhibition at 10 µM: 10^–5 M; for inhibition at 1 µM: 10^–6 M; for inhibition at 0.1 µM: 10^–7 M; for inhibition at 0.01 µM: 10^–8 M; for inhibition at 0.001 µM: 10^–9 M
T4 sequence (P27338 1-520): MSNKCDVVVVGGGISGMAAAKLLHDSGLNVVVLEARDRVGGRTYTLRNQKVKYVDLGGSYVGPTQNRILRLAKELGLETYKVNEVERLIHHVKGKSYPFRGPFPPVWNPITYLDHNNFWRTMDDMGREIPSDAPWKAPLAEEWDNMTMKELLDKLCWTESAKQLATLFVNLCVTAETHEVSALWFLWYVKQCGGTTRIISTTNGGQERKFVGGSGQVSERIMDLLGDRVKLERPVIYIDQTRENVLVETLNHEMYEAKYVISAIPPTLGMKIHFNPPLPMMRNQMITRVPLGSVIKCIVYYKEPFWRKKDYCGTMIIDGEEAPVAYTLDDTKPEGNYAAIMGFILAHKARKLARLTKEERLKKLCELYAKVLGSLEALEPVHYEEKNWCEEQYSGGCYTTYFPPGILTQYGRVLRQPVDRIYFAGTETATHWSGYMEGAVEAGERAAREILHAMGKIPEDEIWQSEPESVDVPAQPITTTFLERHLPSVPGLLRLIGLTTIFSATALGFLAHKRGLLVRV

MAO-B [5] = target: T4, MAO-B; test: Enzyme kinetics on MAO-B (Lineweaver–Burk); assay type: biochemical
Procedure: as §1, §2, §3

[6] = DPPH free-radical scavenging activity assay; conditions: serial dilution 10^–3–10^–9 M; read-out: IC50 on DPPH antioxidant activity
Procedure: This approach is based on evaluating the free-radical scavenging abilities of the stable 1,1-diphenyl-2-picrylhydrazyl (DPPH) radical. To create the DPHH solution, 9.86 mg of DPPH was weighed and diluted to 25 mL with methanol. The test wells were then filled with 100 μL of the DPPH solution and 100 μL of the test solutions. Only 200 μL of methanol was used for the blank reading, while the control reading required the usage of 100 μL each of methanol and the DPPH solution. Following incubation, a spectrophotometric measurement at 517 nm was carried out.[26],[27]

MAO-A [7] = target: T3, MAO-A; test: Enzyme kinetics on MAO-A (Lineweaver–Burk); assay type: biochemical
Procedure: as §1, §2, §3

T1 sequence (P05067 672-713 limits assumed): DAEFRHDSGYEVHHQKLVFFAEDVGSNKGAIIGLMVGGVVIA
Sequence of AChE (P22303 32-614): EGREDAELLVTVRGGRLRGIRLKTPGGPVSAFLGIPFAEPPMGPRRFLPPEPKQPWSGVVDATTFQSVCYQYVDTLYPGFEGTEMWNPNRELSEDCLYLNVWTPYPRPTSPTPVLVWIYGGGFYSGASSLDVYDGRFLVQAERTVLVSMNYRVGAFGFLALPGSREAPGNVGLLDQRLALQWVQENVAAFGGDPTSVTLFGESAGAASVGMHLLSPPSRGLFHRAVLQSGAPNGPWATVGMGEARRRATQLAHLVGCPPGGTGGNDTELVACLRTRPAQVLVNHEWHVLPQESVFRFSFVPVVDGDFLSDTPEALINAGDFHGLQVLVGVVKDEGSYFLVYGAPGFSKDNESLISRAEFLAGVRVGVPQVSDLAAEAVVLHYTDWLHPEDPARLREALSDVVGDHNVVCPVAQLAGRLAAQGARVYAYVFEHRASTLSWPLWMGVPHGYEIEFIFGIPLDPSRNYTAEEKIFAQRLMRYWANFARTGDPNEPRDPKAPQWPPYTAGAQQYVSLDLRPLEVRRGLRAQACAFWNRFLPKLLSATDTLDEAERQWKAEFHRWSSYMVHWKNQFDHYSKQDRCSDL
T2 sequence (P06276 29-602): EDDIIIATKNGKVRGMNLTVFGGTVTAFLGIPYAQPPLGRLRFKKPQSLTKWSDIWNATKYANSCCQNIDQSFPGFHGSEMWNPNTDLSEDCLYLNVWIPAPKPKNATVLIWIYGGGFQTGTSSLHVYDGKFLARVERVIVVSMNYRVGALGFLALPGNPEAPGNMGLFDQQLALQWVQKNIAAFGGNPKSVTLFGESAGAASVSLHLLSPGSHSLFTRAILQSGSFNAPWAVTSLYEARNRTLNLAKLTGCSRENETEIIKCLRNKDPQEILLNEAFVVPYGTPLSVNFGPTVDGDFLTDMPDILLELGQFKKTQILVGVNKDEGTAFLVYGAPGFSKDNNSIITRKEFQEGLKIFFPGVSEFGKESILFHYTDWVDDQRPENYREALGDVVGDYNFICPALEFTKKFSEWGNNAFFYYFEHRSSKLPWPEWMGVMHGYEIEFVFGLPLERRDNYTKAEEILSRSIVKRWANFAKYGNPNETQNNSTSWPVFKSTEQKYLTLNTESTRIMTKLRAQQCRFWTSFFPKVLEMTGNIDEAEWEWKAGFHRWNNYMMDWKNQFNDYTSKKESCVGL

| Compound | inhibition at 100 µM (Beta Amyloid 1–42 (Aβ42)) [%] | IC50 (Cytotoxicity test (MTT)) [nM] | inhibition at 1000 µM (BChE [2]) [%] | inhibition at 100 µM (BChE [2]) [%] | IC50 (AChE) [nM] | inhibition at 1000 µM (AChE) [%] | inhibition at 100 µM (AChE) [%] | inhibition at 10 µM (AChE) [%] | inhibition at 1 µM (AChE) [%] | inhibition at 0.1 µM (AChE) [%] | inhibition at 0.01 µM (AChE) [%] | inhibition at 0.001 µM (AChE) [%] | inhibition at 1000 µM (MAO-A [3]) [%] | IC50 (MAO-B [4]) [nM] | inhibition at 1000 µM (MAO-B [4]) [%] | inhibition at 100 µM (MAO-B [4]) [%] | inhibition at 10 µM (MAO-B [4]) [%] | inhibition at 1 µM (MAO-B [4]) [%] | inhibition at 0.1 µM (MAO-B [4]) [%] | inhibition at 0.01 µM (MAO-B [4]) [%] | other results |
| --- | --- | --- | --- | --- | --- | --- | --- | --- | --- | --- | --- | --- | --- | --- | --- | --- | --- | --- | --- | --- | --- |
| COc1cc2c(cc1OC)C(=O)/C(=C/c1ccc(NC(=O)CN(C)CCCN(C)C)cc1)C2 [D39] | 69.8 ± 0.778 | 12300 ± 416 | 92.8 ± 1.36 | 87.3 ± 1.25 | 45.8 ± 0.9 | 92.6 ± 1.62 | 88.7 ± 1.19 | 81.7 ± 1.16 | 73.3 ± 0.952 | 64.3 ± 0.687 | 40.2 ± 0.528 | 20.5 ± 0.492 | 89.8 ± 1.44 | 39.3 ± 1.1 | 95.3 ± 1.06 | 87.2 ± 1.82 | 84.8 ± 1.64 | 78.6 ± 1.25 | 60.2 ± 0.956 | 36.2 ± 0.488 | inhibition at 1000 µM (Beta Amyloid 1–42 (Aβ42)): ≥ 80%; IC50 (Beta Amyloid 1–42 (Aβ42)): 197 ± 7.9 nM; type of inhibition of BChE (BChE [1]; Lineweaver–Burk plots): mixed inhibition; Ki (BChE [1]; secondary plot of Lineweaver–Burk data, read-out: steady-state inhibition constant (Ki), BChE): 61.7 nM; IC50 (BChE [2]): 75 ± 3.2 nM; inhibition at 10 µM (BChE [2]): 81.4 ± 1.33%; inhibition at 1 µM (BChE [2]): 73.7 ± 1.15%; inhibition at 0.1 µM (BChE [2]): 55.4 ± 0.678%; inhibition at 0.01 µM (BChE [2]): 34.7 ± 0.511%; inhibition at 0.001 µM (BChE [2]): 21.6 ± 0.485%; inhibition at 100 µM (MAO-A [3]): 36.2 ± 0.756%; inhibition at 0.001 µM (MAO-B [4]): 25.6 ± 0.359% |
| COc1ccc2c(c1)C/C(=C\c1ccc(NC(=O)CN(C)CCCN(C)C)cc1)C2=O [D37] | > 50 | 2290 ± 136 | 94.2 ± 1.39 | 89.7 ± 1.25 | 48.2 ± 1.7 | 92.5 ± 1.57 | 87.6 ± 1.68 | 83.5 ± 1.23 | 75.1 ± 1.08 | 61.5 ± 0.965 | 39.5 ± 0.489 | 19.7 ± 0.508 | 96.51 ± 0.736 | 31.2 ± 0.8 | 98.4 ± 1.63 | 91.6 ± 1.24 | 85.5 ± 1.12 | 78.3 ± 1.07 | 72.2 ± 1.1 | 40.1 ± 0.561 | IC50 (BChE [2]): 83.9 ± 3.4 nM; inhibition at 10 µM (BChE [2]): 82.7 ± 1.01%; inhibition at 1 µM (BChE [2]): 71.4 ± 1.35%; inhibition at 0.1 µM (BChE [2]): 59.3 ± 0.754%; inhibition at 0.01 µM (BChE [2]): 32.5 ± 0.355%; inhibition at 0.001 µM (BChE [2]): 18.5 ± 0.471%; inhibition at 100 µM (MAO-A [3]): 37.8 ± 0.96%; inhibition at 0.001 µM (MAO-B [4]): 18.2 ± 0.418%; type of inhibition of MAO-B (MAO-B [5]; Lineweaver–Burk plots): noncompetitive inhibition; Ki (MAO-B [5]; secondary plot of Lineweaver–Burk data, read-out: steady-state inhibition constant (Ki), MAO-B): 29.7 nM; IC50 [6]: 179 ± 7 nM |
| CCCN(C)CC(=O)Nc1ccc(/C=C2\Cc3cc(OC)ccc3C2=O)cc1 [D28] | 75.6 ± 1.04 | 6520 ± 175 | 61.3 ± 0.997 | 36.6 ± 0.667 | 24.8 ± 1 | 98.6 ± 1.21 | 95.3 ± 1.31 | 92.8 ± 1.03 | 87.1 ± 1.06 | 72 ± 0.958 | 36 ± 0.623 | 19.4 ± 0.455 | 89.6 ± 1.29 | 40.9 ± 1.9 | 92.6 ± 1.33 | 89.3 ± 1.24 | 80.5 ± 1.01 | 75.2 ± 1.08 | 67 ± 0.958 | 41.5 ± 0.547 | inhibition at 1000 µM (Beta Amyloid 1–42 (Aβ42)): 82.7 ± 1.68%; IC50 (Beta Amyloid 1–42 (Aβ42)): 147 ± 5.3 nM; IC50 (MAO-A [3]): 111 ± 4.7 nM; inhibition at 10 µM (MAO-A [3]; 10^–5 M): 72.7 ± 1.11%; inhibition at 1 µM (MAO-A [3]; 10^–6 M): 63.4 ± 1.08%; inhibition at 0.1 µM (MAO-A [3]; 10^–7 M): 59 ± 0.895%; inhibition at 0.01 µM (MAO-A [3]; 10^–8 M): 39.2 ± 0.714%; inhibition at 0.001 µM (MAO-A [3]; 10^–9 M): 18.7 ± 0.521%; fold stronger MAO-A inhibition compared to moclobemide (MAO-A [3]; ratio of IC50 values): 50 ×; type of inhibition of MAO-A (MAO-A [7]; Lineweaver–Burk plots): noncompetitive inhibition; Ki (MAO-A [7]; secondary plot of Lineweaver–Burk data, read-out: steady-state inhibition constant (Ki), MAO-A): 107 nM; inhibition at 0.001 µM (MAO-B [4]): 18.8 ± 0.421%; IC50 [6]: 210 ± 10 nM |
